Several values for one entry are separate records, joined by “and”; a condition that tells them apart may be missing. Equal values may be shown once. Inconclusive results and toxic doses are left out.
Tested on: L1210 leukemia ip in BDF1 mice, survival T/C
Assay: NCI In Vivo Anticancer Drug Screen. Data for tumor model L1210 Leukemia (intraperitoneal) in B6D2F1 (BDF1) mice
Conditions: endpoint: mean survival time, higher = longer survival
Summary of the method: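 Mice bearing the transplanted tumor received compound or vehicle. Survival of the treated group was divided by that of the vehicle-treated control group to give the ratio.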

[1] = dose: 100.0 mg/kg/injection, schedule: Q04DX003 (ip), vehicle: Klucel (hydroxypropylcellulose) (HPC)
[2] = dose: 200.0 mg/kg/injection, schedule: Q04DX003 (ip), vehicle: Klucel (hydroxypropylcellulose) (HPC)
[3] = dose: 400.0 mg/kg/injection, schedule: Q04DX003 (ip), vehicle: Klucel (hydroxypropylcellulose) (HPC)
[4] = dose: 100.0 mg/kg/injection, schedule: Q01DX001 (ip), vehicle: saline
[5] = dose: 200.0 mg/kg/injection, schedule: Q01DX001 (ip), vehicle: saline
[6] = dose: 400.0 mg/kg/injection, schedule: Q01DX001 (ip), vehicle: saline
[7] = dose: 100.0 mg/kg/injection, schedule: Q01DX009 (ip), vehicle: Klucel (hydroxypropylcellulose) (HPC)
[8] = dose: 200.0 mg/kg/injection, schedule: Q01DX009 (ip), vehicle: Klucel (hydroxypropylcellulose) (HPC)
[9] = dose: 400.0 mg/kg/injection, schedule: Q01DX009 (ip), vehicle: Klucel (hydroxypropylcellulose) (HPC)
[10] = dose: 100.0 mg/kg/injection, schedule: Q04DX002 (ip), vehicle: Klucel (hydroxypropylcellulose) (HPC)
[11] = dose: 100.0 mg/kg/injection, schedule: Q04DX003 (ip), vehicle: saline with Tween-80
[12] = dose: 100.0 mg/kg/injection, schedule: Q04DX003 (ip), vehicle: saline
[13] = dose: 200.0 mg/kg/injection, schedule: Q04DX003 (ip), vehicle: saline
[14] = dose: 400.0 mg/kg/injection, schedule: Q04DX003 (ip), vehicle: saline

c1ccc(C[Si](c2ccccc2)c2ccccc2)cc1
T/C [1]: 107 % of control
T/C [2]: 100 % of control
T/C [3]: 98 % of control

CC(=O)NNC(=O)c1cccnc1
T/C (dose: 100.0 mg/kg/injection, schedule: Q01DX001 (ip), vehicle: water): 95 % of control
T/C (dose: 100.0 mg/kg/injection, schedule: Q01DX009 (ip), vehicle: water): 95 % of control
T/C (dose: 200.0 mg/kg/injection, schedule: Q01DX001 (ip), vehicle: water): 104 % of control
T/C (dose: 200.0 mg/kg/injection, schedule: Q01DX009 (ip), vehicle: water): 101 % of control
T/C (dose: 400.0 mg/kg/injection, schedule: Q01DX001 (ip), vehicle: water): 101 % of control
T/C (dose: 400.0 mg/kg/injection, schedule: Q01DX009 (ip), vehicle: water): 116 % of control
T/C (dose: 800.0 mg/kg/injection, schedule: Q01DX009 (ip), vehicle: water): 116 % of control

OCC1OC(n2c(=S)[nH]c3ccccc32)C(O)C1O (stereo not given)
T/C [4]: 108 % of control
T/C [5]: 100 % of control
T/C [6]: 106 % of control

CCCCCc1cccc(C)n1
T/C [4]: 96 % of control

O=C(O)CC(CC(=O)O)c1cccc([N+](=O)[O-])c1
T/C (dose: 100.0 mg/kg/injection, schedule: Q01DX001 (ip), vehicle: acetone): 96 % of control
T/C (dose: 200.0 mg/kg/injection, schedule: Q01DX001 (ip), vehicle: acetone): 98 % of control
T/C (dose: 400.0 mg/kg/injection, schedule: Q01DX001 (ip), vehicle: acetone): 98 % of control

Cc1cc(N(C)C)ccc1C=O
T/C [7]: 94 % of control
T/C [1]: 97 % of control
T/C [8]: 105 % of control
T/C [2]: 105 % of control
T/C [9]: 103 % of control
T/C [3]: 98 % of control

O=S1(=O)C2CCCCCC2(N2CCOCC2)C1c1ccccc1 (stereo not given)
T/C [10]: 101 % of control
T/C (dose: 200.0 mg/kg/injection, schedule: Q04DX002 (ip), vehicle: Klucel (hydroxypropylcellulose) (HPC)): 97 % of control
T/C (dose: 400.0 mg/kg/injection, schedule: Q04DX002 (ip), vehicle: Klucel (hydroxypropylcellulose) (HPC)): 93 % of control

Cc1ccc(C(=O)CN(Cc2ccccc2)Cc2ccccc2)cc1
T/C [7]: 103 % of control
T/C [1]: 98 % of control
T/C [8]: 97 % of control
T/C [2]: 92 % of control
T/C [9]: 92 % of control
T/C [3]: 91 % of control

NC(=O)C#CC(N)=O
T/C [7]: 97 % of control
T/C [1]: 95 % of control
T/C [8]: 109 % of control
T/C [2]: 97 % of control
T/C [9]: 92 % of control
T/C [3]: 92 % of control

NC(=O)NC(=O)NC1CCCCC1
T/C [1]: 102 % of control
T/C [2]: 102 % of control
T/C [3]: 100 % of control

O=C(Nc1ccccc1)OC1CCCC2CCC21 (stereo not given)
T/C [4]: 97 % of control
T/C [5]: 90 % of control
T/C [6]: 90 % of control

CC(=O)c1cc(Cl)ccc1Cl
T/C (dose: 100.0 mg/kg/injection, schedule: Q04DX002 (ip), vehicle: saline): 97 % of control
T/C (dose: 200.0 mg/kg/injection, schedule: Q04DX002 (ip), vehicle: saline): 103 % of control
T/C (dose: 400.0 mg/kg/injection, schedule: Q04DX002 (ip), vehicle: saline): 103 % of control

Cc1cc(=O)[nH]c(N/N=C/c2ccc(N(CCCl)CCCl)cc2)n1
T/C [11]: 102 % of control
T/C (dose: 200.0 mg/kg/injection, schedule: Q04DX003 (ip), vehicle: saline with Tween-80): 105 % of control
T/C (dose: 400.0 mg/kg/injection, schedule: Q04DX003 (ip), vehicle: saline with Tween-80): 109 % of control

O=C(NCCCCCCCCCCNC(=O)N1CC1)N1CC1
T/C (dose: 0.12 mg/kg/injection, schedule: Q01DX Z (ip), vehicle: carboxymethylcellulose (CMC)): 94 % of control
T/C (dose: 0.25 mg/kg/injection, schedule: Q01DX Z (ip), vehicle: carboxymethylcellulose (CMC)): 96 % of control
T/C (dose: 0.4 mg/kg/injection, schedule: Q01DX Z (ip), vehicle: carboxymethylcellulose (CMC)): 115 % of control
T/C (dose: 0.5 mg/kg/injection, schedule: Q01DX Z (ip), vehicle: carboxymethylcellulose (CMC)): 108 % of control
T/C (dose: 0.5 mg/kg/injection, schedule: Q01DX Z (ip), vehicle: saline): 110 % of control
T/C (dose: 0.8 mg/kg/injection, schedule: Q01DX Z (ip), vehicle: carboxymethylcellulose (CMC)): 123 % of control
T/C (dose: 0.8 mg/kg/injection, schedule: Q01DX Z (ip), vehicle: saline): 113 % of control
T/C (dose: 1.0 mg/kg/injection, schedule: Q01DX Z (ip), vehicle: carboxymethylcellulose (CMC)): 118 % of control
T/C (dose: 1.2 mg/kg/injection, schedule: Q01DX Z (ip), vehicle: saline): 124 % of control
T/C (dose: 1.8 mg/kg/injection, schedule: Q01DX Z (ip), vehicle: carboxymethylcellulose (CMC)): 155 % of control
T/C (dose: 1.8 mg/kg/injection, schedule: Q01DX Z (ip), vehicle: saline): 118 % of control
T/C (dose: 2.6 mg/kg/injection, schedule: Q01DX Z (ip), vehicle: carboxymethylcellulose (CMC)): 155 % of control and 160 % of control
T/C (dose: 2.7 mg/kg/injection, schedule: Q01DX Z (ip), vehicle: saline): 168 % of control
T/C (dose: 4.0 mg/kg/injection, schedule: Q01DX Z (ip), vehicle: carboxymethylcellulose (CMC)): 119 % of control
T/C (dose: 5.0 mg/kg/injection, schedule: Q01DX001 (ip), vehicle: saline): 119 % of control
T/C (dose: 6.0 mg/kg/injection, schedule: Q01DX Z (ip), vehicle: carboxymethylcellulose (CMC)): 96 % of control
T/C (dose: 6.0 mg/kg/injection, schedule: Q01DX Z (ip), vehicle: saline): 112 % of control

O=C1c2ccccc2C(=O)N1CC1CO1 (stereo not given)
T/C (dose: 25.0 mg/kg/injection, schedule: Q04DX002 (ip), vehicle: Klucel (hydroxypropylcellulose) (HPC)): 90 % of control
T/C (dose: 50.0 mg/kg/injection, schedule: Q04DX002 (ip), vehicle: Klucel (hydroxypropylcellulose) (HPC)): 93 % of control
T/C [10]: 93 % of control

NCCCN1CCN(CCCN)CC1
T/C [4]: 98 % of control
T/C (dose: 100.0 mg/kg/injection, schedule: Q01DX009 (ip), vehicle: saline): 94 % of control and 103 % of control
T/C [12]: 97 % of control
T/C [5]: 90 % of control
T/C (dose: 200.0 mg/kg/injection, schedule: Q01DX009 (ip), vehicle: saline): 94 % of control and 97 % of control
T/C [13]: 96 % of control
T/C [6]: 95 % of control
T/C (dose: 400.0 mg/kg/injection, schedule: Q01DX009 (ip), vehicle: saline): 100 % of control and 88 % of control
T/C [14]: 92 % of control

CC(Br)CCON1C(=O)c2ccccc2C1=O (stereo not given)
T/C (dose: 50.0 mg/kg/injection, schedule: Q01DX001 (ip), vehicle: saline): 112 % of control
T/C [4]: 102 % of control
T/C [5]: 96 % of control
T/C [6]: 96 % of control

N#CCc1ccc(-c2ccccc2)cc1
T/C (dose: 12.5 mg/kg/injection, schedule: Q01DX009 (ip), vehicle: saline with Tween-80): 103 % of control
T/C (dose: 25.0 mg/kg/injection, schedule: Q01DX009 (ip), vehicle: saline with Tween-80): 95 % of control
T/C (dose: 50.0 mg/kg/injection, schedule: Q01DX009 (ip), vehicle: saline with Tween-80): 94 % of control
T/C (dose: 50.0 mg/kg/injection, schedule: Q04DX003 (ip), vehicle: saline with Tween-80): 97 % of control
T/C (dose: 100.0 mg/kg/injection, schedule: Q01DX001 (ip), vehicle: carboxymethylcellulose (CMC)): 100 % of control
T/C [11]: 93 % of control
T/C (dose: 200.0 mg/kg/injection, schedule: Q01DX001 (ip), vehicle: carboxymethylcellulose (CMC)): 100 % of control
T/C (dose: 400.0 mg/kg/injection, schedule: Q01DX001 (ip), vehicle: carboxymethylcellulose (CMC)): 93 % of control

Nc1ncnc2c1c(-c1nn[nH]n1)cn2C1OC(CO)C(O)C1O (stereo not given)
T/C (dose: 12.5 mg/kg/injection, schedule: Q01DX005 (ip), vehicle: saline): 121 % of control
T/C (dose: 12.5 mg/kg/injection, schedule: Q01DX009 (ip), vehicle: saline): 122 % of control
T/C (dose: 50.0 mg/kg/injection, schedule: Q01DX005 (ip), vehicle: saline): 108 % of control
T/C (dose: 50.0 mg/kg/injection, schedule: Q01DX009 (ip), vehicle: saline): 98 % of control

O=C1NC(=O)c2c(Cl)c(Cl)c(Cl)c(Cl)c21
T/C (dose: 25.0 mg/kg/injection, schedule: Q04DX003 (ip), vehicle: saline): 95 % of control
T/C (dose: 50.0 mg/kg/injection, schedule: Q04DX003 (ip), vehicle: saline): 106 % of control
T/C [12]: 92 % of control and 93 % of control
T/C [13]: 98 % of control
T/C [14]: 111 % of control
